Laboratory results as given in PMC10216581, “Homogeneous, Synthetic, Non-Saccharide Glycosaminoglycan Mimetics as Potent Inhibitors of Human Cathepsin G” (Biomolecules, 2023).

Legend:
Assay type in all cases: biochemical
human plasma [1] = assay: Prothrombin time (PT) clotting assay; details: concentration required to double the PT of pooled human plasma
Protocol: (§1) The impacts of NSGM 25 on activated partial thromboplastin time (aPTT) and the prothrombin time (PT) of human plasma were measured employing a standard one-stage recalcification assay at 37 °C, as previously reported. CaCl2 and thromboplastin-D were used to initiate clotting in aPTT and PT assays, respectively, in the absence and presence of NSGM 25, and the time to clot was recorded accordingly.

human plasma [2] = assay: Activated partial thromboplastin time (aPTT) clotting assay; details: concentration required to double the aPTT of pooled human plasma
Protocol: as §1

Human CatG = molecular target: T1, Human CatG (Homo sapiens, UniProt P08311); assay: Direct inhibition of CatG, chromogenic substrate (S-7388) hydrolysis assay, IC50 determination; details: for IC50: pH 7.4 tris buffer, 37 °C, 60 nM CatG, 750 µM S-7388, ± 1 S.E., read-out: IC50; for IC50 / HS (Hill slope) / ΔY (efficacy): 100 mM NaCl; for HS (Hill slope): Hill slope of dose-response fit; for HS (Hill slope) / ΔY (efficacy): pH 7.4; for ΔY (efficacy): ΔY = YM − YO of dose-response fit; for fold difference (loss) in CatG inhibition potency relative to NSGM 25: ratio of IC50s versus 25
T1 construct: purchased Elastin Products Company (Owensville, MO, USA)
T1 sequence (P08311 21-255): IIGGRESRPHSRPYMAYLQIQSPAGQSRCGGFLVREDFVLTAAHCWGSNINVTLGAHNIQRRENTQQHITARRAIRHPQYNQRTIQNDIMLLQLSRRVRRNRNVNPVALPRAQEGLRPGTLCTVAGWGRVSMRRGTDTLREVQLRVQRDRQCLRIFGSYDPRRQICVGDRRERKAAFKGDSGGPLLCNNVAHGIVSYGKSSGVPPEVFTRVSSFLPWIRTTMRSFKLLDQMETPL
Protocol: A chromogenic substrate hydrolysis assay was used to determine the direct inhibition of CatG by the NSGMs, as previously reported. To each well of a 96-well microplate containing 88 µL of 20 mM tris buffer, containing 100 mM NaCl, 2.5 mM CaCl2, 0.1% PEG 8000, and 0.05% Tween 80, 4 µL of CatG (final concentration of 60 nM) and 5 µL of H2O or NSGM (final concentration of 0–100 µM) were added. After incubating for a period of 5 min, 3 µL of CatG substrate (S-7388, final concentration of 750 µM) was added, and the residual CatG activity was obtained from the initial rate of increase of absorbance at 405 nm. The relative residual activity of CatG for each of the NSGMs, at the various concentrations, was calculated from the ratio of CatG activity in the presence and absence of NSGMs. The dose dependence curve was plotted using a logistic equation (see below) in Sigmaplot version 12 to obtain the IC50 (potency), Hill slope (HS), and efficacy (ΔY). Here, Y is the ratio of residual CatG activity in the presence of NSGMs to that in their absence, YO and YM are the minimum and maximum values of fractional residual CatG activity, respectively, IC50 is the concentration of the NSGM that inhibits CatG activity by 50%, and HS is the Hill slope. ΔY = YM − YO. Y=YO+YM−YO/1+10^logI0−logIC50HS
Figure 4 Representative IC50 profiles for CatG inhibition by NSGMs. Direct inhibition of human CatG was measured using the chromogenic substrate hydrolysis assay at pH 7.4 and 37 °C. Solid lines represent analysis using the logistic dose–response relationship (Equation (1)) to obtain the IC50, ΔY%, and HS. Errors represent ± 1 S.E.

| SMILES | PT (EC2X) (human plasma [1]) [µM] | aPTT (EC2X) (human plasma [2]) [µM] | IC50 (Human CatG) [µM] | HS (Hill slope) (Human CatG) | ΔY (efficacy) (Human CatG) [%] | fold difference (loss) in CatG inhibition potency relative to NSGM 25 (Human CatG) [fold] |
| --- | --- | --- | --- | --- | --- | --- |
| CC1CNc2c(cccc2S(=O)(=O)N[C@@H](CCCNC(=N)N)C(=O)N2CC[C@@H](C)C[C@@H]2C(=O)O)C1 (some centres unmarked) [Argatroban, argatroban, reference compound] | 0.36 | 0.34 |  |  |  |  |
| CCOC(=O)c1c(C)oc2cc(OCc3cccc(OS(=O)(=O)O)c3)c(OS(=O)(=O)O)cc12 [NSGM 2] |  |  | > 50 |  |  |  |
| COc1cc2oc(C)c(C(=O)OCCOS(=O)(=O)O)c2cc1OS(=O)(=O)O [NSGM 3] |  |  | > 50 |  |  |  |
| Cc1ccc(OCCOc2cc(OS(=O)(=O)O)cc3oc(-c4ccc(OS(=O)(=O)O)cc4)cc(=O)c23)cc1 [NSGM 16] |  |  | > 100 | 1.9 ± 0.3 | 115 ± 4 |  |
| O=S(=O)(O)Oc1cc2c(c(OS(=O)(=O)O)c1)CC(OS(=O)(=O)O)C(c1ccc(OS(=O)(=O)O)c(OS(=O)(=O)O)c1)O2 (centres unmarked) [NSGM 17] |  |  | 65 ± 13 | 3.1 ± 1.3 | 76 ± 7 |  |
| O=c1cc(-c2ccc(OS(=O)(=O)O)cc2)oc2cc(OS(=O)(=O)O)cc(OCC=CCOc3cc(OS(=O)(=O)O)cc4oc(-c5ccc(OS(=O)(=O)O)cc5)cc(=O)c34)c12 [NSGM 18] |  |  | 4.7 ± 0.7 | 1.5 ± 0.3 | 81 ± 7 |  |
| O=c1cc(-c2ccc(OS(=O)(=O)O)cc2)oc2cc(OS(=O)(=O)O)cc(OCc3ccc(COc4cc(OS(=O)(=O)O)cc5oc(-c6ccc(OS(=O)(=O)O)cc6)cc(=O)c45)cc3)c12 [NSGM 19] |  |  | 3.3 ± 0.3 | 3.1 ± 1.0 | 82 ± 4 | 66 |
| O=c1cc(-c2ccc(OS(=O)(=O)O)cc2)oc2cc(OS(=O)(=O)O)cc(OCc3cccc(COc4cc(OS(=O)(=O)O)cc5oc(-c6ccc(OS(=O)(=O)O)cc6)cc(=O)c45)c3)c12 [NSGM 21] |  |  | 10.3 ± 4.8 | 1.3 ± 0.8 | 81 ± 7 |  |
| O=c1cc(-c2ccc(OS(=O)(=O)O)cc2)oc2cc(OS(=O)(=O)O)cc(OCc3ccc(COc4cc(OS(=O)(=O)O)cc5oc(-c6ccc(OS(=O)(=O)O)cc6)cc(=O)c45)nc3)c12 [NSGM 22] |  |  | 1.3 ± 0.2 | 1.2 ± 0.2 | 105 ± 7 |  |
| O=c1cc(-c2ccc(OS(=O)(=O)O)cc2)oc2cc(OS(=O)(=O)O)cc(OCc3ccc(-c4ccc(COc5cc(OS(=O)(=O)O)cc6oc(-c7ccc(OS(=O)(=O)O)cc7)cc(=O)c56)cc4)cc3)c12 [NSGM 23] |  |  | 3.4 ± 0.2 | 4.1 ± 1.0 | 103 ± 4 |  |
| O=c1c(OS(=O)(=O)O)c(-c2ccc(OS(=O)(=O)O)c(OS(=O)(=O)O)c2)oc2cc(OS(=O)(=O)O)cc(OCCCOc3cc(OS(=O)(=O)O)cc4oc(-c5ccc(OS(=O)(=O)O)c(OS(=O)(=O)O)c5)c(OS(=O)(=O)O)c(=O)c34)c12 [NSGM 24] |  |  | 0.21 ± 0.04 | 1.5 ± 0.5 | 94 ± 9 | 4 |
| O=c1c(OS(=O)(=O)O)c(-c2ccc(OS(=O)(=O)O)c(OS(=O)(=O)O)c2)oc2cc(OS(=O)(=O)O)cc(OCc3cccc(COc4cc(OS(=O)(=O)O)cc5oc(-c6ccc(OS(=O)(=O)O)c(OS(=O)(=O)O)c6)c(OS(=O)(=O)O)c(=O)c45)c3)c12 [NSGM 27] |  |  | 0.15 ± 0.06 | 0.9 ± 0.4 | 77 ± 10 |  |
| O=c1c(OS(=O)(=O)O)c(-c2ccc(OS(=O)(=O)O)c(OS(=O)(=O)O)c2)oc2cc(OS(=O)(=O)O)cc(OCc3ccc(COc4cc(OS(=O)(=O)O)cc5oc(-c6ccc(OS(=O)(=O)O)c(OS(=O)(=O)O)c6)c(OS(=O)(=O)O)c(=O)c45)nc3)c12 [NSGM 28] |  |  | 0.18 ± 0.04 | 0.9 ± 0.2 | 77 ± 5 |  |
| CCOC(=O)c1c(C)oc2cc(OCc3ccccc3)c(OCCCOc3cc(OS(=O)(=O)O)cc4oc(-c5ccc(OS(=O)(=O)O)cc5)cc(=O)c34)cc12 [NSGM 30] |  |  | 18.9 ± 2.2 | 2.1 ± 0.5 | 87 ± 5 |  |
| O=C(NC[C@H]1CN(c2ccc(N3CCOCC3=O)cc2)C(=O)O1)c1ccc(Cl)s1 [Rivaroxaban, rivaroxaban, reference compound] | 0.15 | 0.12 |  |  |  |  |
